In assay [1] the test system is THP-1 cells. The experiment in a line: Membrane hydration, PY3174 generalized polarization, confocal microscopy. It counts as cell-based, human. As to conditions: 200 μM sterol 1 h or 50 μM fatty acid 48 h, efficacy order 6KC > cholesterol ≥ 7DHC, all statistically significant. Here is the method:
(§1) For these measurements, cells were labeled with 10 μM PY3174 for 20 min at room temperature. […] During processing, segmentation of images into membrane and non-membrane pixels was carried out with the manually seeded watershed algorithm using a custom-written MATLAB program as described previously ([Kovacs et al., 2017]). The average value of general polarization correlating with the degree of membrane compactness ([[…] et al., 2013]) was calculated from the data of cell membrane pixels after background subtraction using […]

The test system of assay [2] is JY cells. The assay is described as above. It is filed as cell-based, human. As to conditions: 200 μM sterol 1 h or 50 μM fatty acid 48 h, efficacy order 6KC > cholesterol ≥ 7DHC, effects of 7DHC and SA not statistically significant. Here is the method:
as §1

The test system of assay [3] is THP-1 cells. As to conditions: 50 μM fatty acid 48 h, LysoTracker Deep Red and 10 µM PY3174 2 h at 37°C, extent similar to cell membrane. Here is the method:
(§2) Measurement of hydration of lysosomal membranes with fluorescence microscopy […]
(§3) The PY3174 fluorophore capable of providing information about the hydration of the cell membrane […]
(§4) via an emission ratiometric fluorescence microscopy assay was a kind gift from Leslie M. Loew […]
(§5) (University of Connecticut, CT) (1). For these measurements, cells were placed onto an 8-well […]
(§6) chambered coverglass and labeled with 100 nM LysoTracker Deep Red (Thermo Fisher Scientific, […]
(§7) Waltham, MA) for visualization of lysosomes and 10 µM PY3174 for 2 hours at 37°C to stimulate the […]
(§8) endocytosis of the environment-sensitive fluorophore. After staining, images were taken at the […]
(§9) midplane of cells using an LSM880 confocal laser-scanning microscope (Carl Zeiss AG, Jena, […]
(§10) Germany). PY3174 was excited at 488 nm and emitted intensities were measured in two wavelength […]
(§11) ranges between 500 and 540 nm (Iblue) and 650 and 735 nm (Ired), while LysoTracker Deep Red was […]
(§12) excited at 633 nm and emission was detected between 650 and 735 nm. During processing, pixels […]
(§13) corresponding to lysosomal membranes were identified based on the intensity of LysoTracker Deep […]
(§14) Red using a custom-written algorithm under MATLAB. The average value of generalized polarization […]
(§15) (GP) correlating with the degree of membrane hydration (1) was calculated from the data of lysosomal […]
(§16) membrane pixels after background subtraction using […]
(§17) (1 picture or pasted object on this page, not shown here)

Assay [4] deals with JY cells. The note with it: 50 μM fatty acid 48 h, LysoTracker Deep Red and 10 µM PY3174 2 h at 37°C, extent similar to cell membrane. As to the method:
as §2, §3, §4, §5, §6, §7, §8, §9, §10, §11, §12, §13, §14, §15, §16, §17

For assay [5], the system named is THP-1 cells. The experiment in a line: Membrane dipole potential, F66 emission ratio, flow cytometry. The note with it: n = 5; for effect of fatty acid pretreatment on cholesterol-induced DP elevation (Rem, F66): 50 μM fatty acid 48 h, then 50 or 200 μM cholesterol 1 h; for Rem, F66: fatty acid 12.5-50 μM for 48 h. It is filed as cell-based, human. Here is the method: (§18) The human acute monocytic leukemia-derived cell line THP-1 and the human Epstein-Barr virus (EBV) transformed lymphoblastoid cell line JY were obtained from the American Type Culture Collection (Manassas, VA, United States) and cultivated according to their specifications. […] As controls, cells were treated with the corresponding amounts of native MβCD complexes not containing sterols. To study the effects of fatty acids, cells were incubated for 48 h in medium supplemented with saturated stearic acid (SA, Sigma Aldrich), ω-3 polyunsaturated α-linolenic acid (ALA, Sigma Aldrich) or ω-6 polyunsaturated γ-linolenic acid (GLA, Sigma Aldrich) at various concentrations ranging from 12.5 to 50 μM. […] After washing, the fluorescence intensities of cells were determined with a FACS Aria III flow cytometer (Becton Dickinson, Mountain View, CA, United States) at 37°C. […] Data analysis was carried out in FCS Express (De Novo Software, Los Angeles, CA, United States). The ratio of emitted intensities in the two wavelength ranges (N^∗/T^∗) was determined for each cell and the average value was calculated for each sample from the data of living cells gated on FSC-SSC dot plots. The value of N^∗/T^∗ ratio negatively correlates with the magnitude of DP ([Kovacs et al., 2017]).
On the technique in general: In flow cytometry, cells or beads pass a laser one at a time.

Assay [6] relates to JY cells. The description is as above. It is filed as cell-based, human. As to conditions: 50 μM fatty acid 48 h, then 50 or 200 μM cholesterol 1 h, n = 5. Here is the method:
as §18

The subject of assay [7] is THP-1 cells. The experiment in a line: Membrane fluidity, TMA-DPH fluorescence anisotropy. The note with it: 200 μM sterol 1 h or 50 μM fatty acid 48 h, 37°C, n = 6, vs control. It is filed as cell-based, human. Here is the method: (§19) 4′-(trimethylammonio)-diphenylhexatriene (TMA-DPH) was purchased from Sigma-Aldrich, dissolved in tetrahydrofuran and used for determination of membrane fluidity as described previously ([Batta et al., 2018]). […] Fluorescence intensities were measured without washing using a Fluorolog-3 spectrofluorometer (Horiba Jobin Yvon, Edison, NJ, United States) with the temperature of the cuvette holder adjusted to 37°C by a circulating water bath. The fluorescence anisotropy (r) of TMA-DPH was determined in the L-format after excitation at 352 nm and measurement of fluorescence intensities at 430 nm according to the formula: […]
On the technique in general: Fluorescence polarisation rises when a labelled molecule tumbles more slowly, as on binding a larger partner.

Assay [8] deals with JY cells. The assay can be described thus: Membrane fluidity, TMA-DPH fluorescence anisotropy. It is filed as cell-based, human. As to conditions: 200 μM sterol 1 h or 50 μM fatty acid 48 h, 37°C, n = 6, vs control. Here is the method: as §19

For `CC/C=C\C/C=C\C/C=C\CCCCCCCC(=O)O` [ALA, α-linolenic acid], the “PY3174 generalized polarization in the cell membrane (inversely correlates with membrane hydration)” value in the assay on THP-1 cells [1] and in the assay with JY cells [2] was “reduced” each time. Moreover, the “generalized polarization of PY3174 in the lysosomal membranes” value in the assay with THP-1 cells [3] and in the assay on JY cells [4] was “decreased” in each case. In addition, the “effect of fatty acid pretreatment on cholesterol-induced DP elevation (Rem, F66)” value in the assay on THP-1 cells [5] and in the assay on JY cells [6] was “significantly decreased the DP-elevating effect of cholesterol” in each case. Besides, in the assay with THP-1 cells [5], the “Rem, F66” value is “dose-dependently and significantly increased”. Also, the “TMA-DPH fluorescence anisotropy (inversely correlates with membrane fluidity)” value with THP-1 cells [7] and in the assay on JY cells [8] was “significantly decreased” throughout.

As for `CCCCC/C=C\C/C=C\C/C=C\CCCCC(=O)O` [GLA, γ-linolenic acid], the “PY3174 generalized polarization in the cell membrane (inversely correlates with membrane hydration)” value with THP-1 cells [1] and in the assay on JY cells [2] was “reduced” throughout. The “generalized polarization of PY3174 in the lysosomal membranes” value in the assay with THP-1 cells [3] and in the assay on JY cells [4] was “decreased” in each case. Further, the “effect of fatty acid pretreatment on cholesterol-induced DP elevation (Rem, F66)” value with THP-1 cells [5] and with JY cells [6] was “a tendency to augment the cholesterol-induced DP changes” each time. In the assay on THP-1 cells [5], the “Rem, F66” value was “opposite changes”. The “TMA-DPH fluorescence anisotropy (inversely correlates with membrane fluidity)” value in the assay on THP-1 cells [7] and in the assay with JY cells [8] was “did not reach statistical significance” each time.

For the origin of these results see article PMC8074792, “An ω-3, but Not an ω-6 Polyunsaturated Fatty Acid Decreases Membrane Dipole Potential and Stimulates Endo-Lysosomal Escape of Penetratin” (Frontiers in Cell and Developmental Biology, 2021).
